{"source": "patent US20020110604A1", "about": "“Composition exhibiting synergistic antioxidant activity” (Ashni Naturaceuticals, Inc., priority 2000, published 2002)", "assay": "Total Oxyradical Scavenging Capacity (TOSC) Assay; synergy by CalcuSyn median-effect analysis", "type": "biochemical", "conditions": "TOSC antioxidant capacity; pure compounds, astaxanthin alone or combined at the stated ratio", "procedure": "Cm is determined from the x-intercept of the median-effect plot. The fraction affected by the concentration of the test material is fa and the fraction unaffected by the concentration is fu (fu=1−fa). The exponent m is the parameter signifying the sigmoidicity or shape of the dose-effect curve. It is estimated by the slope of the median-effect plot. […] The goodness of fit for the data to the median-effect equation is represented by the linear correlation coefficient r of the median-effect plot. […] Synergy of test components is quantified using the combination index (CI) parameter. […] The equation determines only the additive effect rather than synergism or antagonism."}
{"smiles": "CC1=C(/C=C/C(C)=C/C=C/C(C)=C/C=C/C=C(C)/C=C/C=C(C)/C=C/C2=C(C)C(=O)[C@@H](O)CC2(C)C)C(C)(C)C[C@H](O)C1=O", "note": "[astaxanthin, 3, 3′-dihydroxy-β,β-carotene-4, 4′-dieto-β-carotene]", "values": [{"measurement": "EC50", "result": 642, "unit": "µM"}]}
